Measurements: paper PMC8506144 (Phytochemistry, 2021)
Where two headings read alike, the source gives them in different places.

Legend:
SARS-CoV-2 PLpro [1] = biological target: T1, SARS-CoV-2 PLpro (Severe acute respiratory syndrome coronavirus 2, UniProt P0DTD1); experiment: biochemical; assay type: biochemical
SARS-CoV-2 PLpro [2] = biological target: T1, SARS-CoV-2 PLpro; experiment: Pro-ISG15 cleavage assay; assay type: biochemical; details: for inhibition at 20 µM / inhibition at 10 µM: read-out: Inhibition rate of PLpro-mediated deISGylation; for Inhibition rate of PLpro-mediated deISGylation: 20 μM compound, 50 nM PLpro, 350 nM pro-ISG15, 10 min, 37 °C
[3] = IC50 (50% inhibition of PLpro anti-proteolytic activity), 50 nM PLpro, 50 μM Z-RLRGG-AMC, 10 mM DTT, pH 8.0, 37 °C, mean ± SD

Row | SMILES | IC50 (SARS-CoV-2 PLpro [1]; [3]) [µM] | Ki (SARS-CoV-2 PLpro [1]) [µM] | inhibition at 20 µM (SARS-CoV-2 PLpro [2]) [%] | inhibition at 10 µM (SARS-CoV-2 PLpro [2]) [%] | Inhibition rate of PLpro-mediated deISGylation (SARS-CoV-2 PLpro [2]) | Inhibition mode (Dixon plot) (SARS-CoV-2 PLpro [1]) | Fold more potent anti-proteolytic activity than di-methylated counterpart 8 (SARS-CoV-2 PLpro [1]; ratio of IC50 values, 7 vs 8) [fold] | IC50 (SARS-CoV-2 PLpro [1]; read-out: IC50 (50% inhibition of PLpro anti-proteolytic activity), pH 8) [µM]
1 | COc1ccc(-c2cc(=O)c3c(O)cc(O)cc3o2)cc1 [Acacetin, acacetin, reference compound] | 91.2 ± 11.3 |  |  |  |  |  |  | 
2 | O=c1cc(-c2ccc(O)cc2)oc2cc(O)cc(O)c12 [Apigenin, apigenin, reference compound] | 75.7 ± 6.4 |  |  |  |  |  |  | 
3 | O=c1cc(-c2ccc(O)c(-c3c(O)cc(O)c4c(=O)cc(-c5ccc(O)cc5)oc34)c2)oc2cc(O)cc(O)c12 [Compound 1, amentoflavone] | 13 ± 1.2 | 9.1 ± 0.7 | 48.1 |  |  |  |  | 
4 | COc1ccc(-c2cc(=O)c3c(O)cc(O)c(-c4cc(-c5cc(=O)c6c(O)cc(O)cc6o5)ccc4O)c3o2)cc1 [Compound 2, podocarpusflavone A] | 43.2 ± 2.9 | 36.5 ± 4.2 | 64.9 to 74.8 | 53.2 to 71.1 |  |  |  | 
5 | COc1cc(O)c2c(=O)cc(-c3ccc(OC)c(-c4c(O)cc(O)c5c(=O)cc(-c6ccc(O)cc6)oc45)c3)oc2c1 [Compound 3, ginkgetin] | 29.8 ± 1.5 | 17.7 ± 1.1 |  | 53.2 to 71.1 | near complete inhibition |  |  | 
6 | COc1ccc(-c2cc(=O)c3c(O)cc(O)c(-c4cc(-c5cc(=O)c6c(O)cc(O)cc6o5)ccc4OC)c3o2)cc1 [Compound 4, isoginkgetin] | 31.2 ± 3.4 | 26.5 ± 2.8 |  | 53.2 to 71.1 | near complete inhibition |  |  | 
7 | O=C1c2c(O)cc(O)cc2O[C@H](c2ccc(O)cc2)[C@H]1c1c(O)cc(O)c2c(=O)cc(-c3ccc(O)c(O)c3)oc12 [Compound 6, morelloflavone] | 36.4 ± 4.8 | 30.7 ± 2.9 | 32.3 to 34.1 |  |  | non-competitive inhibition |  | 
8 | O=c1cc(-c2ccc(Oc3c(O)cc4oc(-c5ccc(O)cc5)cc(=O)c4c3O)cc2)oc2cc(O)cc(O)c12 [Compound 7, hinokiflavone] | 9.5 ± 1.2 | 7.8 ± 0.5 |  | 65.6 to 98 | near complete inhibition |  | 2.8 | 
9 | CC(C)=CCc1cc2c(cc1O)oc(=O)c1c3ccc(O)cc3oc21 [Psoralidin, reference compound] |  |  |  |  |  |  |  | 27.8 ± 2.2
